{"source": "patent US9421197B2", "about": "“Methods of generating hyper INOS expressing cells and uses thereof” (CASE WESTERN RESERVE UNIVERSITY, priority 2010, dated 2016)", "key": {"iNOS and TNF-α mRNA": {"test_system": "iNOS and TNF-α mRNA", "assay": "inflammatory wound model: iNOS and TNF-α expression in skin", "assay_type": "in vivo", "conditions": "IL6−/− mice, combined wounding, UVB and topical rosiglitazone, 24 hours", "method": "Cycle time, temperature, and number were based on Applied Biosystems recommendations. Skin was wounded with some modifications. Mice were treated with 3-6 mm excisional wounds, one midline and two on each side of the midline. […] Wounds were measured and treated with topical rosiglitazone solution daily until healed (loss of serum crust and reepithelialization). Lung Treatment and Preparation […] All other reagents were purchased from sigma."}, "excisional wounds": {"test_system": "excisional wounds", "assay": "inflammatory wound model: wound healing curves", "assay_type": "in vivo, mice", "conditions": "for day by which wounds healed: IL6−/− mice, inflammatory wound treatment, agent given i.p."}, "[1]": {"conditions": "therapeutic doses; FDA alert May 21, 2007; cited from earlier work"}, "peritoneal macrophages": {"test_system": "peritoneal macrophages", "assay": "thioglycollate-induced peritonitis, peritoneal macrophages analyzed ex vivo by RT-PCR", "conditions": "IL6−/− mice treated in vivo", "method": "For RT-PCR analysis, RNA was isolated using Trizol (Invitrogen) following the manufacturer's instructions, and was reverse-transcribed and quantified using Applied Biosystems TaqMan® RNA-to-CT™ 1-Step Kit, TaqMan® Gene Expression Assays for 18 s RNA, iNOS II, […], and IL-1β, and Step-One™ System. Cycle time, temperature, and number were based on Applied Biosystems recommendations.\nMice were injected i.p. with 2 ml of thioglycollate and sacrificed 24 hours later mice by cervical dislocation. Lavage was performed by infusing 5 ml of […] DPBS into the peritoneal cavity. The fluid sample is recovered by aspirating the liquid with a syringe. 80%±21% of instilled fluid volume is recovered. Macrophages were harvested following centrifugation of the […]."}, "NF-κB p65 and STAT3": {"test_system": "NF-κB p65 and STAT3", "assay": "Western blot of nuclear NF-κB p65 and STAT3 in thioglycollate-elicited macrophages", "assay_type": "cell-based, mice", "conditions": "reconstitution of IL6−/− macrophages", "quoted_text": "Mice were injected i.p. with 2 ml of thioglycollate and sacrificed 24 hours later mice by cervical dislocation. Lavage was performed by infusing 5 ml of 40 C DPBS into the peritoneal cavity. The fluid sample is recovered by aspirating the liquid with a syringe. 80%±21% of instilled fluid volume is recovered. Macrophages were harvested following centrifugation of the BAL fluid.\nNE-PER kit (Thermo Scientific) was used to extract nuclear and cytoplasmic protein from peritoneal macrophages. Protein samples were prepared under reduced conditions and western blot analysis was performed using a standard protocol (Invitrogen). Stat3 (79D7) Rabbit mAb, NF— xB p65, β-actin (13E5) Rabbit mAb (Cell Signaling Technology, Danvers, Mass.) were used for western blot evaluation. Densiometry analyzed by Biorad VersaDoc imaging system."}}}
{"compound": "CN(CCOc1ccc(CC2SC(=O)NC2=O)cc1)c1ccccn1", "note": "(centres unmarked) [rosiglitazone]", "values": [{"measurement": "increase in TNF-α mRNA expression", "setting": "iNOS and TNF-α mRNA", "result": 13, "unit": "fold"}, {"measurement": "increase in iNOS mRNA expression", "setting": "iNOS and TNF-α mRNA", "result": 20, "unit": "fold"}, {"measurement": "delay of wound closure", "setting": "excisional wounds; IL6−/− mice compared to wildtype, inflammatory wound protocol", "result": 8, "unit": "days"}, {"measurement": "risk of heart attack", "setting": "[1]", "result": "substantially increased risk"}]}
{"compound": "CC(=N)NCc1cccc(CN)c1", "note": "[1400 W]", "values": [{"measurement": "day by which wounds healed", "setting": "excisional wounds", "result": 14, "unit": "days"}]}
{"compound": "O=C(Nc1ccccc1)c1cc([N+](=O)[O-])ccc1Cl", "note": "[GW9662]", "values": [{"measurement": "iNOS expression", "setting": "peritoneal macrophages", "result": "No significant increase"}]}
{"compound": "rIL-6: recombinant IL-6 (R&D Systems)", "values": [{"measurement": "STAT3 and NF-kB levels", "setting": "NF-κB p65 and STAT3", "result": "restores STAT3 and NF-kB levels similar to wildtype conditions"}, {"measurement": "day by which wounds healed", "setting": "excisional wounds", "result": 11, "unit": "days"}]}
